Measurements published in ChEMBL document CHEMBL4052667 (Bioorg Med Chem, 2017).

Columns and labels:
T47D = assay: Antiproliferative activity against human T47D cells after 72 hrs by MTT assay; assay type: functional, cell-based
MCF7 = assay: Antiproliferative activity against human MCF7 cells after 72 hrs by MTT assay; assay type: functional, cell-based; details: MCF7, 72 h
MDA-MB-231 [1] = assay: Antiproliferative activity against human MDA-MB-231 cells after 72 hrs by MTT assay; assay type: functional, cell-based; details: MDA-MB-231, 72 h
HCC827 = assay: Antiproliferative activity against human HCC827 cells after 72 hrs by MTT assay; assay type: functional, cell-based; details: HCC827, 72 h
HeLa = assay: Antiproliferative activity against human HeLa cells after 72 hrs by MTT assay; assay type: functional, cell-based
K562 = assay: Antiproliferative activity against human K562 cells after 72 hrs by MTT assay; assay type: functional, cell-based; details: K562, 72 h
U-937 = assay: Antiproliferative activity against human U937 cells after 72 hrs by MTT assay; assay type: functional, cell-based; details: U-937, 72 h
MDA-MB-231 [2] = assay: Antiproliferative activity against human MDA-MB-231 cells after 5 days by MTT assay; assay type: functional, cell-based; details: MDA-MB-231, 120 h
MCF-10A = assay: Antiproliferative activity against human MCF10A cells after 72 hrs by MTT assay; assay type: cell-based
Raji [3] = assay: Antiproliferative activity against human Raji cells after 3 days by MTT assay; assay type: functional, cell-based; details: 72 h
HCC1937 = assay: Antiproliferative activity against human HCC1937 cells after 3 days by MTT assay; assay type: functional, cell-based; details: HCC1937, 72 h
[4] = target: Poly [ADP-ribose] polymerase 1 (Homo sapiens, UniProt P09874); assay: Inhibition of recombinant full length human N-terminal GST-tagged PARP1 expressed in baculovirus infected Sf9 cells using biotinylated substrate after 1 hr by UV/Vis spectrophotometric analysis
Sequence of Poly [ADP-ribose] polymerase 1 (P09874 whole entry, the tested form may be a part): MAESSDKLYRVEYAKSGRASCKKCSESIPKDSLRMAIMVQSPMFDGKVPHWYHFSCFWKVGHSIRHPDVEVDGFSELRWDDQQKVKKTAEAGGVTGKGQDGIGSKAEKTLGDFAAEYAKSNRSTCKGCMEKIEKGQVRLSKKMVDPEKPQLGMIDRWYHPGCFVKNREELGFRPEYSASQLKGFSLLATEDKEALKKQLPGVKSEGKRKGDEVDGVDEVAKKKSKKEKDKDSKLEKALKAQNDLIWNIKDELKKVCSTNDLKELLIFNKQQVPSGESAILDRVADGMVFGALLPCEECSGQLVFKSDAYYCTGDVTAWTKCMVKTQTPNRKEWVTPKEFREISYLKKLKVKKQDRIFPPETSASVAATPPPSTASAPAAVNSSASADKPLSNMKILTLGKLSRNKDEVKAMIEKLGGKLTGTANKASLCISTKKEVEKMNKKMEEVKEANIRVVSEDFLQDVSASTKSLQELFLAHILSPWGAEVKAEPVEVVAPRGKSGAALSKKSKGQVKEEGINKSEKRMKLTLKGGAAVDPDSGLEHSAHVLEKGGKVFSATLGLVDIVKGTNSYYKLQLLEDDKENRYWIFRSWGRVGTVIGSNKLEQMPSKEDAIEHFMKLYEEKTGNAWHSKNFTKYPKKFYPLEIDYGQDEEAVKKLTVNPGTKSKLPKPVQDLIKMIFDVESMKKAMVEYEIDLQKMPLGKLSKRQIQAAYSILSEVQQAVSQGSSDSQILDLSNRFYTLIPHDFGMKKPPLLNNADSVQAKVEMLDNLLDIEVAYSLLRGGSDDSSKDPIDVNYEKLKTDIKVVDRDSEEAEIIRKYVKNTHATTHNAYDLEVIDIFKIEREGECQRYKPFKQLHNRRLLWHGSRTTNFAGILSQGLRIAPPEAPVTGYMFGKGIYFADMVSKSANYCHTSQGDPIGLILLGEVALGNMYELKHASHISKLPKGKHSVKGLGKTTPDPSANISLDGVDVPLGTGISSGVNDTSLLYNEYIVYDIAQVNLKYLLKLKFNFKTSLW

[5] = target: Poly [ADP-ribose] polymerase 2 (Homo sapiens, UniProt Q9UGN5); assay: Inhibition of recombinant human N-terminal GST-tagged PARP2 (2 to 583 residues) expressed in baculovirus infected Sf9 cells using biotinylated substrate after 1 hr by UV/Vis spectrophotometric analysis
Sequence of Poly [ADP-ribose] polymerase 2 (Q9UGN5 whole entry, the tested form may be a part): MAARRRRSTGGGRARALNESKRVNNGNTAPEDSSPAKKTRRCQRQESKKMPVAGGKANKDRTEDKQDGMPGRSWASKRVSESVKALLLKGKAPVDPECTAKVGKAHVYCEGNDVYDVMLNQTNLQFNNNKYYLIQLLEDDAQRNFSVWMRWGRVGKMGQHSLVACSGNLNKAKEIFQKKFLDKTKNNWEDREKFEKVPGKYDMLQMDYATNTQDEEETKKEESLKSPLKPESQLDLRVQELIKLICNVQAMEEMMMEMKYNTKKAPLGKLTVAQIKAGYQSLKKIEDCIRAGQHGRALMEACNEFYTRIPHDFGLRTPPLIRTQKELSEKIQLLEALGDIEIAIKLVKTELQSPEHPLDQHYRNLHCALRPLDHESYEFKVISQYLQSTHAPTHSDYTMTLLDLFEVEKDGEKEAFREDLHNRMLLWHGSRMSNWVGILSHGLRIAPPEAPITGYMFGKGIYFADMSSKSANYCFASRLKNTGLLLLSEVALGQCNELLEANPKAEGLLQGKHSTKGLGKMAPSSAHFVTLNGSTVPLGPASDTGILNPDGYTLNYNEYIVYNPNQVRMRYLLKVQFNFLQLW

Histone deacetylase 1 = Histone deacetylase 1 (Homo sapiens, UniProt Q13547); assay: Inhibition of HDAC1 (unknown origin) using acetylated peptide substrate preincubated for 15 mins followed by substrate addition measured after 60 mins by fluorescence analysis
Sequence of Histone deacetylase 1 (Q13547 whole entry): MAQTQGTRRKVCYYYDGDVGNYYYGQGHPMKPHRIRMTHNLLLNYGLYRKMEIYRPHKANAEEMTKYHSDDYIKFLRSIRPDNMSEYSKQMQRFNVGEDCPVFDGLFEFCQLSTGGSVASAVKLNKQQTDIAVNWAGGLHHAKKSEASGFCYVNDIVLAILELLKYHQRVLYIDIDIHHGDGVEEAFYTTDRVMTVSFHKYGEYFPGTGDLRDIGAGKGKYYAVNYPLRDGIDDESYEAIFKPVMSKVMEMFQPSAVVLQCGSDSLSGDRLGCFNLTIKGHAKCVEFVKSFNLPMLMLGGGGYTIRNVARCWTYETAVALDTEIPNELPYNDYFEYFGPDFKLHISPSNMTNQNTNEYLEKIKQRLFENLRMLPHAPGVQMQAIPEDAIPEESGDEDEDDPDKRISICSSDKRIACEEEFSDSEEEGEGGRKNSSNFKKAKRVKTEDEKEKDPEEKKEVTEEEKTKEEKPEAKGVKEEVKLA

[6] = target: T1, Protein deacetylase HDAC6 (Homo sapiens, UniProt Q9UBN7); assay: Inhibition of HDAC6 (unknown origin) using acetylated peptide substrate preincubated for 15 mins followed by substrate addition measured after 60 mins by fluorescence analysis
T1 sequence (Q9UBN7 whole entry): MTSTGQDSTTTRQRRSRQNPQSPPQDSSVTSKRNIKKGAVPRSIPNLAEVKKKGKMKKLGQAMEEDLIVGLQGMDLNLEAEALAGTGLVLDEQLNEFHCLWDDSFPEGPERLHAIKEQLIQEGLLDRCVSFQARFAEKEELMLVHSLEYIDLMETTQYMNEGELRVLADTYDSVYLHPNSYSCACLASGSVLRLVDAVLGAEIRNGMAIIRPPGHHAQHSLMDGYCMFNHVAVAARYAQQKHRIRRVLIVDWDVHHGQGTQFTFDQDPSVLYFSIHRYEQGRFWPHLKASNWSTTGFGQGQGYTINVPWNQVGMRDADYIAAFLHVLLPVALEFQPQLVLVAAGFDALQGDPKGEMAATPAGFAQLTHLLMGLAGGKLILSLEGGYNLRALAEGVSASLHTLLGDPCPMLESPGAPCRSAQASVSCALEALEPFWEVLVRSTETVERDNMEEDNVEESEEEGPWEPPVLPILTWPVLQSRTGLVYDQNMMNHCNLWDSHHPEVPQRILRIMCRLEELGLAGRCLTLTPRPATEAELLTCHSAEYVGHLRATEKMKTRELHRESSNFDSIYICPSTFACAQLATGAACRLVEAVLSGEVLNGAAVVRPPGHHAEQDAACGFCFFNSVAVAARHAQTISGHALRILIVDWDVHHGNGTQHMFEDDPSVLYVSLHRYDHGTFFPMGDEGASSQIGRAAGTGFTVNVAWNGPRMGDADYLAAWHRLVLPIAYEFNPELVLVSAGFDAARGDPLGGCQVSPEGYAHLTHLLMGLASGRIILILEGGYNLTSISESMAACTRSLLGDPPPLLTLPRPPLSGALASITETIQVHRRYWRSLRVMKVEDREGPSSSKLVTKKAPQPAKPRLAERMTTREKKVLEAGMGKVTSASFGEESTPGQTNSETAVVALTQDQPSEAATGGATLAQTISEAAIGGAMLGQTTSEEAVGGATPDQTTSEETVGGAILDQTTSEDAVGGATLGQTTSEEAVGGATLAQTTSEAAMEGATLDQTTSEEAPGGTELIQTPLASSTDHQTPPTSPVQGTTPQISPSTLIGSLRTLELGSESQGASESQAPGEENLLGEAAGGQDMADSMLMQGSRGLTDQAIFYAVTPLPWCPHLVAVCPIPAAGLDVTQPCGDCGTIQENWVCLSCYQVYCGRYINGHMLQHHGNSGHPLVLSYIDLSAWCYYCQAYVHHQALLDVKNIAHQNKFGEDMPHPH

[7] = Antiproliferative activity against human MCF10A cells at less than 50 uM after 72 hrs by MTT assay relative to control; assay type: cell-based, MCF-10A
Homo sapiens = organism: Homo sapiens; assay: Selectivity ratio of IC50 for HDAC1 (unknown origin) to IC50 for HDAC6 (unknown origin)
[8] = Safety index, ratio of compound IC50 to SAHA IC50 for human MCF10A cells; assay type: ADME, cell-based, MCF-10A; details: read-out: Ratio IC50
Raji [9] = assay: Potency index, ratio of SAHA IC50 to compound IC50 for human Raji cells; assay type: functional
MDA-MB-231 [10] = assay: Induction of apoptosis in human MDA-MB-231 cells assessed as early apoptotic cells at 2.5 uM after 48 hrs by Annexin V-FITC/propidium iodide staining based flow cytometry (reference value: 1.27%); assay type: functional
MDA-MB-231 [11] = assay: Induction of apoptosis in human MDA-MB-231 cells assessed as late apoptotic cells at 2.5 uM after 48 hrs by Annexin V-FITC/propidium iodide staining based flow cytometry (reference value: 3.82%); assay type: functional
MDA-MB-231 [12] = assay: Induction of apoptosis in human MDA-MB-231 cells assessed as necrotic cells at 2.5 uM after 48 hrs by Annexin V-FITC/propidium iodide staining based flow cytometry (reference value: 0.024%); assay type: functional
MDA-MB-231 [13] = assay: Induction of apoptosis in human MDA-MB-231 cells assessed as viable cells at 2.5 uM after 48 hrs by Annexin V-FITC/propidium iodide staining based flow cytometry (reference value: 94.9%); assay type: functional; details: MDA-MB-231, 48 h, read-out: Activity
MDA-MB-231 [14] = assay: Induction of apoptosis in human MDA-MB-231 cells assessed as early apoptotic cells at 5 uM after 48 hrs by Annexin V-FITC/propidium iodide staining based flow cytometry (reference value: 1.27%); assay type: functional
MDA-MB-231 [15] = assay: Induction of apoptosis in human MDA-MB-231 cells assessed as late apoptotic cells at 5 uM after 48 hrs by Annexin V-FITC/propidium iodide staining based flow cytometry (reference value: 3.82%); assay type: functional
MDA-MB-231 [16] = assay: Induction of apoptosis in human MDA-MB-231 cells assessed as necrotic cells at 5 uM after 48 hrs by Annexin V-FITC/propidium iodide staining based flow cytometry (reference value: 0.024%); assay type: functional
MDA-MB-231 [17] = assay: Induction of apoptosis in human MDA-MB-231 cells assessed as viable cells at 5 uM after 48 hrs by Annexin V-FITC/propidium iodide staining based flow cytometry (reference value: 94.9%); assay type: functional; details: MDA-MB-231, 48 h, read-out: Activity
MDA-MB-231 [18] = assay: Induction of apoptosis in human MDA-MB-231 cells assessed as early apoptotic cells at 10 uM after 48 hrs by Annexin V-FITC/propidium iodide staining based flow cytometry (reference value: 1.27%); assay type: functional
MDA-MB-231 [19] = assay: Induction of apoptosis in human MDA-MB-231 cells assessed as late apoptotic cells at 10 uM after 48 hrs by Annexin V-FITC/propidium iodide staining based flow cytometry (reference value: 3.82%); assay type: functional
MDA-MB-231 [20] = assay: Induction of apoptosis in human MDA-MB-231 cells assessed as necrotic cells at 10 uM after 48 hrs by Annexin V-FITC/propidium iodide staining based flow cytometry (reference value: 0.024%); assay type: functional
MDA-MB-231 [21] = assay: Induction of apoptosis in human MDA-MB-231 cells assessed as viable cells at 10 uM after 48 hrs by Annexin V-FITC/propidium iodide staining based flow cytometry (reference value: 94.9%); assay type: functional; details: MDA-MB-231, 48 h, read-out: Activity
MDA-MB-231 [22] = assay: Induction of apoptosis in human MDA-MB-231 cells after 48 hrs by Annexin V-FITC/propidium iodide staining based flow cytometry; assay type: functional, cell-based

| SMILES | IC50 (T47D) | IC50 (MCF7) | IC50 (MDA-MB-231 [1]) | IC50 (HCC827) | IC50 (HeLa) | IC50 (K562) | IC50 (U-937) | IC50 (MDA-MB-231 [2]) | IC50 (MCF-10A) | IC50 (Raji [3]) | IC50 (HCC1937) | IC50 [4] | IC50 [5] | IC50 (Histone deacetylase 1) | IC50 [6] | inhibition at 72 h [7] | further results |
| --- | --- | --- | --- | --- | --- | --- | --- | --- | --- | --- | --- | --- | --- | --- | --- | --- | --- |
| O=C(c1cc(Cc2n[nH]c(=O)c3ccccc23)ccc1F)N1CCN(C(=O)C2CC2)CC1 [OLAPARIB] | > 50 µM | 35.2 µM | 39.5 µM | > 50 µM | > 50 µM | > 50 µM | 21.8 µM | 7.92 µM | > 50 µM | > 50 µM | 8.65 µM | – | – | – | – | – | – |
| O=C(Cc1ccc(CN2CCN(C(=O)c3cc(Cc4n[nH]c(=O)c5ccccc45)ccc3F)CC2)cc1)NO | > 50 µM | 41.8 µM | 57.9 µM | 32.1 µM | > 50 µM | > 50 µM | 31 µM | 35.4 µM | > 50 µM | – | – | 0.0204 µM | 0.0491 µM | 0.912 µM | 0.129 µM | 20 to 30% | – |
| O=C(CCCCCCC(=O)Nc1ccccc1)NO [VORINOSTAT] | – | – | – | – | – | – | – | – | 2.11 µM | – | – | – | – | – | – | – | – |
| O=C(NO)c1ccc(CN2CCN(C(=O)c3cc(Cc4n[nH]c(=O)c5ccccc45)ccc3F)CC2)cc1 | > 50 µM | 24.1 µM | 33.2 µM | 24.1 µM | > 50 µM | 43.3 µM | 20.5 µM | 18.3 µM | > 50 µM | – | – | 0.00616 µM | 0.0315 µM | 0.503 µM | 0.0167 µM | 20 to 30% | Ratio IC50 (Homo sapiens): 30 |
| O=C(/C=C/c1ccc(CN2CCN(C(=O)c3cc(Cc4n[nH]c(=O)c5ccccc45)ccc3F)CC2)cc1)NO | 4.85 µM | 8.08 µM | 2.68 µM | 2.96 µM | 6.49 µM | 7.58 µM | 3.88 µM | 0.94 µM | 17.4 µM | 0.81 µM | 0.45 µM | 0.015 µM | 0.00253 µM | 0.0382 µM | 0.0102 µM | – | selectivity ratio [8]: 8.2; Ratio IC50 (Raji [9]): 12; Activity (MDA-MB-231 [10]): 6.01%; Activity (MDA-MB-231 [11]): 5.56%; Activity (MDA-MB-231 [12]): 0.34%; viability at 2.5 µM (MDA-MB-231 [13]): 88.1%; Activity (MDA-MB-231 [14]): 11.9%; Activity (MDA-MB-231 [15]): 7.2%; Activity (MDA-MB-231 [16]): 0.634%; viability at 5 µM (MDA-MB-231 [17]): 80.2%; Activity (MDA-MB-231 [18]): 35.2%; Activity (MDA-MB-231 [19]): 40.8%; Activity (MDA-MB-231 [20]): 1.77%; viability at 10 µM (MDA-MB-231 [21]): 22.3%; Activity (MDA-MB-231 [22]): Dose-dependent effect |
